Target: T1, GTPase KRas [1-37] (Homo sapiens, UniProt G3V5T7)
T1 construct: 1-37
Assay: Ras wild-type GTP-binding inhibitors, SAR follow-up, biochemical, pyrazoline analogs, multiplex bead flow cytometry (AID 2047)
Details: not given

T1 sequence (G3V5T7 whole entry): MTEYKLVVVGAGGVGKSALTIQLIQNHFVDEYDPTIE

| SMILES | EC50 |
| --- | --- |
| CN(C)c1ccc(C2CC(c3ccc(Br)cc3)=NN2c2ccccc2)cc1 (stereo not given) [UNM-0000305846] | > 30 µM |
| CN(C)c1ccc(C2CC(c3ccc(Cl)cc3)=NN2c2ccccc2)cc1 (stereo not given) [UNM-0000305847] | > 30 µM |
| COc1ccc(C2=NN(c3ccccc3)C(c3ccc(OC)c(OC)c3C(=O)O)C2)cc1 (stereo not given) [UNM-0000305848] | > 30 µM |
| Cc1ccccc1[N+]1=N[C-](c2ccccc2)CC1c1cccc([N+](=O)[O-])c1 (stereo not given) [UNM-0000305854] | > 30 µM |
| COc1ccccc1N1N=C(c2ccccc2)CC1c1ccccc1 (stereo not given) [UNM-0000305855] | > 30 µM |
| O=[N+]([O-])c1cccc(C2C[C-](c3ccccc3)N=[N+]2c2ccccc2)c1 (stereo not given) [UNM-0000305857] | > 30 µM |
| FC(F)(F)c1cccc(N2N=C(c3ccc(Cl)cc3)CC2c2ccccc2Cl)c1 (stereo not given) [UNM-0000305859] | > 30 µM |
| COc1ccc(C2=NN(c3ccc(Cl)cc3)C(c3ccccc3F)C2)cc1 (stereo not given) [UNM-0000305863] | > 30 µM |
| COc1ccc(C2CC(c3ccc(F)cc3)=NN2c2ccccc2)cc1OC (stereo not given) [UNM-0000305864] | > 30 µM |
| CN(C)c1ccc(C2CC(c3ccc(F)cc3)=NN2c2ccccc2)cc1 (stereo not given) [UNM-0000305866] | > 30 µM |
| COc1ccc(C2CC(c3ccccc3)=NN2c2ccc(C(N)=O)cc2)cc1 (stereo not given) [UNM-0000305870] | > 30 µM |
| COc1ccc(C2CC(c3ccccc3)=NN2c2ccc(C(=O)O)cc2)cc1 (stereo not given) [UNM-0000306085] | > 30 µM |
| COc1ccc(C2CC(c3ccccc3F)=NN2c2ccc(S(N)(=O)=O)cc2)cc1 (stereo not given) [UNM-0000306110] | > 30 µM |
| COc1ccc(C2CC(c3ccccc3Br)=NN2c2ccc(S(N)(=O)=O)cc2)cc1 (stereo not given) [UNM-0000306112] | > 30 µM |
| COc1ccc(C2CC(c3cccc(Br)c3)=NN2c2ccc(S(N)(=O)=O)cc2)cc1 (stereo not given) [UNM-0000306113] | > 30 µM |
| COc1ccc(C2CC(c3cccc(Cl)c3)=NN2c2ccc(S(N)(=O)=O)cc2)cc1 (stereo not given) [UNM-0000306134] | > 30 µM |
| COc1ccc(C2CC(c3ccc(Br)cc3)=NN2c2ccc(S(N)(=O)=O)cc2)cc1 (stereo not given) [UNM-0000306138] | > 30 µM |
| NS(=O)(=O)c1ccc(N2N=C(c3ccccc3)CC2c2cccc(Br)c2)cc1 (stereo not given) [UNM-0000306147] | > 30 µM |
| Cc1ccccc1C1CC(c2ccccc2)=NN1c1ccc(S(N)(=O)=O)cc1 (stereo not given) [UNM-0000306148] | > 30 µM |
| COc1ccc(C2CC(c3ccccc3C)=NN2c2ccc(S(N)(=O)=O)cc2)cc1 (stereo not given) [UNM-0000306152] | > 30 µM |
| COc1ccc(C2CC(c3cccc(C)c3)=NN2c2ccc(S(N)(=O)=O)cc2)cc1 (stereo not given) [UNM-0000306153] | > 30 µM |
| NS(=O)(=O)c1ccc(N2N=C(c3ccccc3)CC2c2ccc(Br)cc2)cc1 (stereo not given) [UNM-0000306160] | > 30 µM |
| NS(=O)(=O)c1ccc(N2N=C(c3ccccc3)CC2c2cccc(Cl)c2)cc1 (stereo not given) [UNM-0000306161] | > 30 µM |

Same assay, conditions: inactive by the depositor's call

| SMILES | EC50 |
| --- | --- |
| COc1ccc(C2CC(c3ccc(Cl)cc3)=NN2c2ccccc2)cc1OC (stereo not given) [UNM-0000305858] | 0.079 µM |
| COc1ccc(C2=NN(c3ccccc3F)C(c3ccc(F)cc3)C2)cc1 (stereo not given) [UNM-0000305860] | 13.5 µM |

Reference: BindingDB's records for doi:10.7270/Q2KK9971 (Nmmlsc, 2009)
